A short description of series [1]: Cytotoxicity against human MCF7/Dox cells assessed as cell survival at 12.5 uM after 48 hrs by MTT assay relative to control. Type of series: cell-based. The note with it: read-out: Survival.
In series [2] the test system is MCF7-DOX. Put plainly: Cytotoxicity against human MCF7/Dox cells assessed as reduction in cell viability after 48 hrs by MTT assay. Type of series: cell-based.
Series [3] concerns MCF7-DOX. Put plainly: Antitumour activity against human MCF7/Dox cells xenografted in Balb/c mouse assessed as tumour growth inhibition at 2 mg/kg measured after 30 days. Format: functional, organism-based.
Series [4] can be described thus: Reversal of P-gp-mediated multidrug resistance in human MCF7/Dox cells assessed as potentiation of doxorubicin-induced cytotoxicity by measuring doxorubicin IC50 at 12.5 uM after 48 hrs by MTT assay (reference value: 51.19 +/- 0.95 microM).

For 33 compounds, viability, IC50 and inhibition results are on record in ChEMBL document CHEMBL4359857, “Design, synthesis and biological evaluation of chalcones as reversers of P-glycoprotein-mediated multidrug resistance” (Eur J Med Chem, 2019).

The source made the active and inactive calls. The rule behind the calls is not given here.

In the case of `COc1cc(OC)c(C(=O)/C=C/c2cccc(Cl)c2)c(O)c1CC=C(C)C`, the viability at 48 h, 12.5 µM in series [1] was over 99%. The IC50 in the series on MCF7-DOX [2] was 59.5 µM.

As to `CCCCCc1c(OC)cc(OC)c(C(=O)/C=C/c2cccc(N3CCNCC3)c2)c1O`, in series [1], the viability at 48 h, 12.5 µM amounted to 93.6%. For the same compound, the IC50 in the series with MCF7-DOX [2] was over 100 µM.

In the case of `COc1ccc(C(=O)/C=C/c2cccc(N3CCNCC3)c2)c(OC)c1`, the viability at 48 h, 12.5 µM in series [1] came out at 96.4%. The IC50 with MCF7-DOX [2] was 95 µM.

In the case of `COc1cccc2c1C(=O)c1c(O)c3c(c(O)c1C2=O)C[C@@](O)(C(=O)CO)C[C@@H]3O[C@H]1C[C@H](N)[C@H](O)[C@H](C)O1`, in the series on MCF7-DOX [3], the inhibition entry is “inactive”.

`COc1cccc(/C=C/C(=O)c2c(OC)cc(OC)c(CC=C(C)C)c2O)c1`: in series [1], the viability at 48 h, 12.5 µM was over 99%. In addition, the IC50 in the series on MCF7-DOX [2] is 49.2 µM.

Regarding `CCc1c(OC)cc(OC)c(C(=O)/C=C/c2cccc(N3CCNCC3)c2)c1O`, the viability at 48 h, 12.5 µM in series [1] is 89.5%. Besides, the IC50 in the series on MCF7-DOX [2] is over 100 µM.

For `COc1cc(OC)c(C(=O)/C=C/c2ccc(C(F)(F)F)cc2)c(O)c1CC=C(C)C`, the viability at 48 h, 12.5 µM in series [1] is over 99%. For the same compound, the IC50 with MCF7-DOX [2] was found to be 73.7 µM; in series [4] it was 23.59 µM.

Turning to `COc1cc(OC)c(C(=O)/C=C/c2ccc(OC)c(OC)c2OC)c(O)c1CC=C(C)C`, in series [1], the viability at 48 h, 12.5 µM was 91.9%. The IC50 in the series on MCF7-DOX [2] came out at 62.6 µM.

Regarding `COc1cc(OC)c(C(=O)/C=C/c2ccccc2)c(O)c1CC=C(C)C`, in series [1], the viability at 48 h, 12.5 µM came out at 90.6%. The IC50 in the series with MCF7-DOX [2] was 65.4 µM; in series [4] it was 20.64 µM.

Regarding `COc1cc(O)c(C(=O)/C=C/c2ccc(N3CCNCC3)cc2)c(OC)c1`, the viability at 48 h, 12.5 µM in series [1] came to 94.2%. The IC50 was determined as 67.5 µM with MCF7-DOX [2] and 16.62 µM in series [4].

Consider `COc1cc(O)c(C(=O)/C=C/c2cccc(N3CCN(C(=O)c4ccc(OC)c(OC)c4)CC3)c2)c(OC)c1`, for which the viability at 48 h, 12.5 µM in series [1] was over 99%. Moreover, in the series on MCF7-DOX [2], the IC50 is over 100 µM.

With `COc1cc(OC)c(C(=O)/C=C/c2ccc(N3CCNCC3)cc2)c(O)c1CC=C(C)C`, the viability at 48 h, 12.5 µM in series [1] amounted to 98.3%. In addition, the figures for the 50% inhibitory concentration (IC50) (with MCF7-DOX [2]; in series [4]) were 57.8 µM and 14.84 µM, respectively.

On to `COc1cc(OC)c(C(=O)/C=C/c2ccc(Cl)cc2)c(O)c1CC=C(C)C`, for which the viability at 48 h, 12.5 µM in series [1] was 90.1%. The IC50 in the series with MCF7-DOX [2] came out at 43.4 µM.

In the case of `CCCc1c(OC)cc(OC)c(C(=O)/C=C/c2cccc(N3CCNCC3)c2)c1O`, the viability at 48 h, 12.5 µM in series [1] is over 99%. Further, the concentration for half-maximal inhibition (IC50) in the series with MCF7-DOX [2] was over 100 µM.

Turning to `COc1cc(OC)c(C(=O)/C=C/c2ccc(F)cc2)c(O)c1CC=C(C)C`, the viability at 48 h, 12.5 µM in series [1] amounted to 94.3%. Moreover, the IC50 in the series with MCF7-DOX [2] was 53.7 µM; in series [4] it was 17.96 µM.

Take `COc1cc(OC)c(C(=O)/C=C/c2cccc(N3CCOCC3)c2)c(O)c1CC=C(C)C`: the viability at 48 h, 12.5 µM in series [1] was over 99%. For the same compound, in the series with MCF7-DOX [2], the IC50 was over 100 µM.

In the case of `COc1cc(O)c(C(=O)/C=C/c2cccc(N3CCOCC3)c2)c(OC)c1`, in series [1], the viability at 48 h, 12.5 µM is over 99%. In addition, the IC50 with MCF7-DOX [2] was over 100 µM.

Turning to `COc1cc(O)c(C(=O)/C=C/c2cccc(N3CCN(C)CC3)c2)c(OC)c1`, in series [1], the viability at 48 h, 12.5 µM is over 99%. In addition, the IC50 with MCF7-DOX [2] amounted to 62.2 µM.

As for `COc1cc(O)c(C(=O)/C=C/c2cccc(N3CCNCC3)c2)c(OC)c1`, the viability at 48 h, 12.5 µM in series [1] was over 99%. Besides, the IC50 in the series on MCF7-DOX [2] is 99.2 µM.

On to `COc1cc(OC)c(C(=O)/C=C/c2cccc(F)c2)c(O)c1CC=C(C)C`, for which the viability at 48 h, 12.5 µM in series [1] turned out to be 92.7%. In the series on MCF7-DOX [2], the IC50 was determined as 45.4 µM.

Turning to `COc1cc(OC)c(C(=O)/C=C/c2cccc([N+](=O)[O-])c2)c(O)c1CC=C(C)C`, the viability at 48 h, 12.5 µM in series [1] is over 99%. The IC50 came out at 57 µM with MCF7-DOX [2] and 8.83 µM in series [4].

Take `COc1cc(O)c(C(=O)/C=C/c2ccc(N3CCN(C(=O)OC(C)(C)C)CC3)cc2)c(OC)c1`: the viability at 48 h, 12.5 µM in series [1] came out at 90.6%. Further, in the series on MCF7-DOX [2], the IC50 was found to be 47.3 µM.

With `COc1ccc(/C=C/C(=O)c2c(OC)cc(OC)c(CC=C(C)C)c2O)cc1`, the viability at 48 h, 12.5 µM in series [1] is over 99%. For the same compound, the IC50 in the series on MCF7-DOX [2] was 46.9 µM.

As to `COc1cc(O)c(C(=O)/C=C/c2cccc(N3CCN(C(=O)OC(C)(C)C)CC3)c2)c(OC)c1`, in series [1], the viability at 48 h, 12.5 µM amounted to 85.4%. For the same compound, the IC50 in the series on MCF7-DOX [2] came out at 56.7 µM; in series [4], 39.95 µM.

As for `COc1c(C)c(O)c(C)c(O)c1C(=O)/C=C/c1ccccc1`, in series [1], the viability at 48 h, 12.5 µM turned out to be 86%. The IC50 with MCF7-DOX [2] was 46.8 µM.

Consider `COc1cc(OC)c(C(=O)/C=C/c2cccc(N3CCN(C)CC3)c2)c(O)c1CC=C(C)C`, for which the viability at 48 h, 12.5 µM in series [1] was over 99%. Also, the IC50 in the series on MCF7-DOX [2] is over 100 µM; in series [4], 23.59 µM.

For the compound `COc1cc(OC)c(C(=O)/C=C/c2cccc(C(F)(F)F)c2)c(O)c1CC=C(C)C`, the viability at 48 h, 12.5 µM in series [1] came out at 91.6%. In addition, the IC50 in the series on MCF7-DOX [2] came out at 66.6 µM.

As for `COc1cc(OC)c(C(=O)/C=C/c2ccc(N3CCN(C(=O)OC(C)(C)C)CC3)cc2)c(O)c1CC=C(C)C`, the viability at 48 h, 12.5 µM in series [1] was over 99%. The IC50 with MCF7-DOX [2] was over 100 µM.

For `COc1cc(OC)c(C(=O)/C=C/c2cccc(N3CCNCC3)c2)c(O)c1C`, in series [1], the viability at 48 h, 12.5 µM came out at 95.8%. Further, the results for the IC50 (with MCF7-DOX [2]; in series [4]) were 98.7 µM and 4 µM, respectively.

For the compound `COc1cc(OC)c(C(=O)/C=C/c2cc(OC)c(OC)c(OC)c2)c(O)c1CC=C(C)C`, the viability at 48 h, 12.5 µM in series [1] came out at 90.8%. Moreover, the results for the IC50 (in the series on MCF7-DOX [2]; in series [4]) were 74.9 µM and 26.56 µM, respectively.

For `CCCCc1c(OC)cc(OC)c(C(=O)/C=C/c2cccc(N3CCNCC3)c2)c1O`, the viability at 48 h, 12.5 µM in series [1] came to 91.6%. The IC50 in the series with MCF7-DOX [2] was over 100 µM.

Take `COc1cc(OC)c(C(=O)/C=C/c2cccc(N3CCN(C(=O)OC(C)(C)C)CC3)c2)c(O)c1CC=C(C)C`: the viability at 48 h, 12.5 µM in series [1] is 93%. Also, the IC50 with MCF7-DOX [2] was 42.6 µM.

As for `COc1cc(OC)c(C(=O)/C=C/c2ccc(N(C)C)cc2)c(O)c1CC=C(C)C`, in series [1], the viability at 48 h, 12.5 µM is over 99%. For the same compound, the IC50 in the series on MCF7-DOX [2] was over 100 µM.
